In US4866196A, “Phenoxyacetic acid derivatives and preparation thereof” (Tanabe Seiyaku Co., Ltd., priority 1986, dated 1989):
Values after ≈ are worked out from the molar mass of the structure shown.

What was measured:
[1] = test system: arachidonic acid-induced pulmonary embolism; experiment: Effect on arachidonic acid-induced pulmonary embolism (in vivo); design: species or system ddy-male mice; details: Mus musculus; oral, 3 hours before arachidonic acid; dose required to shorten the recovery time by at least 15% vs control; read-out: Minimum Effective Dose, inhibiting effect on arachidonic acid-induced pulmonary embolism
Protocol: A test compound (suspended or dissolved in an aqueous sodium bicarbonate and 0.25% carboxymethylcellulose solution) was orally administered to ddy-male mice (5 weeks old, 10 mice per group) fasted overnight. Three hours later, arachidonic acid (125 mg/2.5 ml of 1% NaHCO3 solution+7.5 ml of 0.9% aqueous sodium chloride/kg) was injected to the tail vein of mice to induce pulmonary embolism, and the recovery time(minutes) of locomotive activity of the mice (i.e., the duration from the injection of arachidonic acid to the time the mice recovered from respiratory distress and began to walk) was compared with that of a control group of mice to which an aqueous 0.25% CMC solution was administered instead of the test compound solution. The inhibiting effect of each test compound on arachidonic acid-induced pulmonary embolism was estimated in terms of a minimum effective dose, i.e., the dose required to shorten the recovery time by at least 15% as compared with the control group.

[2] = test system: bleeding time; experiment: Effect on bleeding time (in vivo); design: species or system ddy-male mice; details: Mus musculus; oral, 3 hours before tail cut; dose required to induce at least 50% prolongation of bleeding time vs control; read-out: minimum effective dose, prolonging effect on the bleeding time
Protocol: A test compound (suspended or dissolved in an aqueous 0.25% carboxymethylcellulose solution) was orally administered to ddy-male mice (5 weeks old, 10 mice per group) fasted overnight. Three hours later, the tip (ca. 2 mm) of the tail was cut off under ether anesthesia, and said tail was immersed in physiological saline (37° C.) immediately. The bleeding time (seconds) of the medicated group of mice was compared with that of a control group of mice to which an aqueous 0.25% CMC solution was administered instead of the test compound solution. The prolonging effect of each test compound on the bleeding time was estimated in terms of a minimum effective dose, i.e., the dose required to induce at least 50% prolongation of the bleeding time as compared with that of the control group.

[3] = test system: collagen-induced platelet aggregation; experiment: Effect on collagen-induced platelet aggregation (in vitro); format: cell-based, human; details: for IC50: 2 min, human platelet-rich plasma, 4×10^5 cells/mm^3, 2 minutes at 37° C., Born's method, read-out: IC50, collagen-induced platelet aggregation-inhibiting activity
Protocol: Nine volumes of blood collected from a healthy human were mixed with one volume of 3.13% (w/v) trisodium citrate solution, and the mixture was centrifuged to give platelet-rich plasma ("PRP") as the supernatant. The bottom layer was further centrifuged to give platelet-poor plasma ("PPP") as the supernatant. PRP was diluted with PPP so that the platelet count was about 4×10^5 cells/mm^3. 25 μl of a test compound solution containing an equimolar amount of sodium bicarbonate was added to 200 μl of said diluted PRP. After the mixture was stirred for 2 minutes at 37° C., a collagen solution [25-29 μg/ml solution: Biochim. Biophys. Acta, 186, 254 (1969)] was added thereto to induce platelet aggregation. The degree of platelet aggregation was examined by Born's method (Nature, 194, 927 (1962)), and the platelet aggregation-inhibiting activity of the test compound was estimated. The platlet aggregation-inhibiting activity of the test compound was expressed as IC50, i.e., the concentration of the test compound required to induce 50% inhibition of collagen-induced platelet aggregation.

Row | SMILES | minimal effective dose [1] [mg/kg] | minimal effective dose [2] [mg/kg] | IC50 [3] [µg/mL] | platelet aggregation-inhibiting activity relative to 4-(2-benzenesulfonylaminoethyl)phenoxyacetic acid ([3]; in vitro, times as strong as known compound of JP 35910/1982)
1 | CC(CNS(=O)(=O)c1ccccc1)c1ccc(OCC(=O)O)c(F)c1 (racemic) [Compound No. 4, (±)4-(2-benzenesulfonylamino-1-methylethyl)-2-fluorophenoxyacetic acid] | 0.1 |  |  | 
2 | CC(Cc1ccc(OCC(=O)O)cc1)NS(=O)(=O)c1ccc(Cl)cc1 (racemic) [Compound No. 1, (±)4-[2(4-chlorophenyl)sulfonylaminopropyl]phenoxyacetic acid] | 1 | 3 | 0.7 (≈ 1.82 µM) | 
3 | CC(CNS(=O)(=O)c1ccc(Cl)cc1)c1ccc(OCC(=O)O)cc1 (racemic) [Compound No. 2, (±)4-[2(4-chlorophenyl)sulfonylamino-1-methylethyl]phenoxyacetic acid] | 0.3 | 10 | 0.5 (≈ 1.3 µM) | about 4 times
4 | CC(CNS(=O)(=O)c1ccc(Cl)cc1)c1ccc(OCC(=O)O)c(F)c1 (racemic) [Compound No. 5, (±)4-(2-(4-chlorophenyl)sulfonylamino-1-methylethyl)-2-fluorophenoxyactic acid] | 0.03 |  |  | 
5 | O=C(O)COc1ccc(CCNS(=O)(=O)c2ccccc2)cc1 [Known Compound, 4-(2-benzenesulfonylaminoethyl)phenoxyacetic acid, reference compound] | 30 | 30 | 2 (≈ 5.96 µM) | 
6 | CC(CNS(=O)(=O)c1ccc(Br)cc1)c1ccc(OCC(=O)O)cc1 (racemic) [Compound No. 3, (±)4-[2(4-bromophenyl)sulfonylamino-1-methylethyl]phenoxyacetic acid] | 0.1 | 10 | 0.5 (≈ 1.17 µM) | 
